From ChEMBL document CHEMBL4420065, “Synaptojanin-2 inhibitors for use in the treatment of cancer” (2017)
Calls of active or inactive are those of the source. The calls are words filed in the database; no cut-off is given here.

test system: MDA-MB-231; conditions: Homo sapiens, 10 uM
Description: Inhibition of cell invasion of human MDA-MB-231 cells at 10 uM incubated for 96 hrs by Matrigel based assay

Which inhibition does the source give for `COc1cc(C2c3c(cc(OC)c(O)c3OC)CC(CO)C2COC2OCC(O)C(O)C2O)cc(OC)c1O` (stereo not given) here?
The inhibition was “Active”.

`O=C1C[C@@H](c2ccc(O)c(O)c2)Oc2cc(O[C@@H]3O[C@H](CO)[C@@H](O)[C@H](O)[C@H]3O)cc(O)c21` was tested. Which inhibition did it give?
The inhibition was “Active”.

With `C/C(=C\CO[C@@H]1O[C@H](CO)[C@@H](O)[C@H](O)[C@H]1O)C(O)CCC(C)(C)O` (stereo not given in full) as the compound, how does the inhibition read?
Its inhibition is “Active”.

How did the inhibition turn out when `Cc1c(O)cc2c(c1O)C(=O)[C@H](O)[C@@H](c1ccc(O)c(O)c1)O2` was run?
The inhibition was “Active”.

Which inhibition does the source give for `COc1cc(O)cc(O)c1C(=O)c1ccc(O)c(O)c1` here?
Its inhibition is “Active”.
